The values below come from ChEMBL document CHEMBL5465560, “Selectivity Literature for EUbOPEN Chemogenomic Library” (2024).

Residue numbers refer to the chain shown, from its start.

Holding throughout (details): at 1 µM
Assay [1] deals with T1, Receptor-type tyrosine-protein kinase FLT3 (Homo sapiens), P36888 [D835Y].
T1 sequence (whole entry): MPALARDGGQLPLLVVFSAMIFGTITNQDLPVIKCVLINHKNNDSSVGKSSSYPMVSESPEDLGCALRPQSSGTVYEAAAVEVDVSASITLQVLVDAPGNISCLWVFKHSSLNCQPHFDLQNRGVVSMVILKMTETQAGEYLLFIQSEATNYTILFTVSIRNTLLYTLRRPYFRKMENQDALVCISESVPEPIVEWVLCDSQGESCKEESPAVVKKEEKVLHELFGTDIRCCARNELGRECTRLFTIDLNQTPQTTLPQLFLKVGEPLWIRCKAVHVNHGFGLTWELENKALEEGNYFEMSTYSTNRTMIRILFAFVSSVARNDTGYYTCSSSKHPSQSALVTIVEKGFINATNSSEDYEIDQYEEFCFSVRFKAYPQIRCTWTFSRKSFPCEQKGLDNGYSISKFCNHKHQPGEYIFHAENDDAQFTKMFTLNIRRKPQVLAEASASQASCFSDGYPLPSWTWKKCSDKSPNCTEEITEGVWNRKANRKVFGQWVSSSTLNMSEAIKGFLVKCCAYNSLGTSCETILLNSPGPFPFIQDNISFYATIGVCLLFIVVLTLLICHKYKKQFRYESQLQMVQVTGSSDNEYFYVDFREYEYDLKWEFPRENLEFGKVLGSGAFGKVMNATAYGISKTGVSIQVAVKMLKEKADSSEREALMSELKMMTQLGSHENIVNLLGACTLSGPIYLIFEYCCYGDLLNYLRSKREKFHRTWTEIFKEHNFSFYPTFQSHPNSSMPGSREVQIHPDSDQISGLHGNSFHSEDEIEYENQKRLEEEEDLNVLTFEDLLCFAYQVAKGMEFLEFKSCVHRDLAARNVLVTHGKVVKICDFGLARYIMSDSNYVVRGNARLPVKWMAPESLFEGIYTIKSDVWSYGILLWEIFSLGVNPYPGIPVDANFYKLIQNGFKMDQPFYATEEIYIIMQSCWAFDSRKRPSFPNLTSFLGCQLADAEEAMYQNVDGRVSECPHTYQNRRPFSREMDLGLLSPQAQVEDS
In words: (§1) Selectivity interaction (KinomeScan (DiscoverX)) EUB0001079a FLT3.

Assay [2] relates to T2, Receptor-type tyrosine-protein kinase FLT3 (Homo sapiens), P36888 [R834Q].
T2 sequence (whole entry): T1 sequence (whole entry) with R834Q, Y835D
The description is as §1.

Assay [3] has as its system T3, Receptor-type tyrosine-protein kinase FLT3 (Homo sapiens), P36888 [K663Q].
T3 sequence (whole entry): T1 sequence (whole entry) with K663Q, Y835D
The assay is described as §1.

As to `Nc1cnc(N2CCc3cc(S(=O)(=O)Nc4c(F)cc(Cl)cc4F)cc(N4CCCC4=O)c32)nc1` [TP-020n], the % of control in assay [1] turned out to be 100%; in assay [2], 77%; in assay [3], 97%.
